Source: ChEMBL document CHEMBL1143640, “Modulators of the human CCR5 receptor. Part 2: SAR of substituted 1-(3,3-diphenylpropyl)-piperidinyl phenylacetamides” (Bioorg Med Chem Lett, 2005)
pIC50: −log10 of the molar value.

What was measured:
[1] = Area under the plasma concentration curve was determined at 0-6 hours in rat after ~2 mg/kg oral dosage; n=2
[2] = In vitro intrinsic clearance against rat hepatocytes
[3] = target: T1, C-C chemokine receptor type 5 (Homo sapiens, UniProt P51681); test: Displacement of [125I]-MIP-1 alpha from human C-C chemokine receptor type 5 expressed in CHO cells; format: cell-based
[4] = Bioavailability in rat after 4-10 mg/kg oral dosage; n=3; format: ADME, organism-based; details: in vivo
[5] = Clearance in rat after 1 mg/kg i.v. dosage; n=3; details: in vivo, iv
[6] = target: T1, C-C chemokine receptor type 5; test: Inhibition of MIP-1beta stimulated calcium transients in CCR5-expressing CHO cells; format: functional, cell-based
[7] = Ability to inhibit the chemotaxis of human AlloT cells in response to MIP-1beta; format: functional, cell-based

T1 sequence (P51681 whole entry): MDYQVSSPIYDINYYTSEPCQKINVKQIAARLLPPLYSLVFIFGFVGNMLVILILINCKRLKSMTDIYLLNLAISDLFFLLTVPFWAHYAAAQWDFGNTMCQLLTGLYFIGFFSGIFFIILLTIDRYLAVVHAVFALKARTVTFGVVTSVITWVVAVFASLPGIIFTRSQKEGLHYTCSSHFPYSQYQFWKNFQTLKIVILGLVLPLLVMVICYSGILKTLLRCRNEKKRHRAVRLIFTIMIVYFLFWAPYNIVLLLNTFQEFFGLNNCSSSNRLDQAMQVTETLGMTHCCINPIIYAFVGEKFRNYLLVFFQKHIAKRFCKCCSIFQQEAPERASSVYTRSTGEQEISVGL

SMILES | pIC50 [3] | other results
CCN(C(=O)Cc1ccc(S(C)(=O)=O)cc1)C1CCN(CCC(c2ccc(NS(C)(=O)=O)cc2)c2cccc(F)c2)CC1 (stereo not given) |  | AUC at 6 h [1]: 0.002 µM·h; Clint [2]: 15 uL/min/10e6 cells
CCN(C(=O)Cc1ccc(S(C)(=O)=O)cc1)C1CCN(CCC(c2ccccc2)c2ccc(C(=O)OC)cc2)CC1 (stereo not given) | 8.15 | Clint [2]: > 150 uL/min/10e6 cells
CCN(C(=O)Cc1ccc(S(C)(=O)=O)cc1)C1CCN(CCC(c2ccc(Cl)cc2)c2ccc(Cl)cc2)CC1 | 6.12 | 
C=CCN(C(=O)Cc1ccc(S(C)(=O)=O)cc1)C1CCN(CCC(c2ccccc2)c2ccccc2)CC1 | 7.89 | AUC at 6 h [1]: 0.132 µM·h; bioavailability [4]: 11%; Clint [2]: 54 uL/min/10e6 cells; clearance [5]: 54 mL/min/kg
CCN(C(=O)Cc1ccc(S(C)(=O)=O)cc1)C1CCN(CCC(c2ccccc2)c2ccc(C(N)=O)cc2)CC1 (stereo not given) | 6.59 | 
CS(=O)(=O)c1ccc(CC(=O)N(C2CC2)C2CCN(CCC(c3ccccc3)c3ccccc3)CC2)cc1 | 7.49 | 
CCN(C(=O)Cc1ccc(S(C)(=O)=O)cc1)C1CCN(CCC(c2ccc(F)cc2)c2ccc(F)cc2)CC1 | 6.11 | AUC at 6 h [1]: 1.87 µM·h; bioavailability [4]: 56%; Clint [2]: 4 uL/min/10e6 cells; clearance [5]: 10 mL/min/kg
CCN(C(=O)Cc1ccc(S(C)(=O)=O)cc1)C1CCN(CCC(c2ccccc2)c2ccc(N)cc2)CC1 (stereo not given) | 6.70 | 
CCN(C(=O)Cc1ccc(S(C)(=O)=O)cc1)C1CCN(CCC(c2ccccc2)c2ccc(NC(=O)c3ccccc3)cc2)CC1 (stereo not given) | 6.89 | 
CCN(C(=O)Cc1ccc(S(C)(=O)=O)cc1)C1CCN(CCC(c2ccccc2)c2ccc(NC(=O)OC(C)(C)C)cc2)CC1 (stereo not given) | 6.70 | 
CCN(C(=O)Cc1ccc(S(C)(=O)=O)cc1)C1CCN(CCC(c2ccccc2)c2ccc(NC(=O)Cc3ccccc3)cc2)CC1 (stereo not given) | 8.23 | AUC at 6 h [1]: 0.012 µM·h
CCN(C(=O)Cc1ccc(S(C)(=O)=O)cc1)C1CCN(CCC(c2ccccc2)c2ccc(NC(=O)C(C)(C)C)cc2)CC1 (stereo not given) | 7.66 | 
CCN(C(=O)Cc1ccc(S(C)(=O)=O)cc1)C1CCN(CCC(c2ccccc2)c2ccc(Cl)c(Cl)c2)CC1 (stereo not given) | 7.11 | 
CCN(C(=O)Cc1ccc(S(C)(=O)=O)cc1)C1CCN(CCC(c2ccccc2)c2cccc(Cl)c2)CC1 (stereo not given) | 7.24 | 
CCN(C(=O)Cc1ccc(S(C)(=O)=O)cc1)C1CCN(CCC(c2ccccc2)c2ccc(C#N)cc2)CC1 (stereo not given) | > 9.00 | 
CCN(C(=O)Cc1ccc(S(C)(=O)=O)cc1)C1CCN(CCC(c2ccccc2)c2ccc(C(F)(F)F)cc2)CC1 (stereo not given) | 8.64 | Clint [2]: 37 uL/min/10e6 cells
CCN(C(=O)Cc1ccc(S(C)(=O)=O)cc1)C1CCN(CCC(c2ccccc2)c2ccc(-c3ccccc3)cc2)CC1 (stereo not given) | 7.07 | 
CCN(C(=O)Cc1ccc(S(C)(=O)=O)cc1)C1CCN(CCC(c2ccccc2)c2ccc(Cl)cc2)CC1 (stereo not given) | 8.07 | bioavailability [4]: 3%; Clint [2]: 34 uL/min/10e6 cells; clearance [5]: 46 mL/min/kg
CCN(C(=O)Cc1ccc(S(C)(=O)=O)cc1)C1CCN(CCC(c2ccccc2)c2ccc(NS(=O)(=O)Cc3ccccc3)cc2)CC1 (stereo not given) | 7.96 | 
CCN(C(=O)Cc1ccc(S(C)(=O)=O)cc1)C1CCN(CCC(c2ccccc2)c2ccc(OC)cc2)CC1 (stereo not given) | 8.20 | Clint [2]: 41 uL/min/10e6 cells
CCN(C(=O)Cc1ccc(S(C)(=O)=O)cc1)C1CCN(CCC(c2ccccc2)c2ccccc2)CC1 | 7.74 | 

The next lines start with results.

pIC50 [3] | SMILES | other results
8.10 | CCN(C(=O)Cc1ccc(S(C)(=O)=O)cc1)C1CCN(CCC(c2ccc(NC(C)=O)cc2)c2cccc(F)c2)CC1 (stereo not given) | AUC at 6 h [1]: 0.008 µM·h; Clint [2]: 17 uL/min/10e6 cells
7.55 | CCN(C(=O)Cc1ccc(S(C)(=O)=O)cc1)C1CCN(CCC(c2ccccc2)c2ccc(C)cc2)CC1 (stereo not given) | 
6.51 | CCN(C(=O)Cc1ccc(S(C)(=O)=O)cc1)C1CCN(CCC(c2ccccc2)c2ccc(F)cc2)CC1 (stereo not given) | 
7.59 | CCN(C(=O)Cc1ccc(S(C)(=O)=O)cc1)C1CCN(CCC(c2ccccc2)c2ccc(NC(C)=O)cc2)CC1 (stereo not given) | 
7.92 | CCN(C(=O)Cc1ccc(S(C)(=O)=O)cc1)C1CCN(CCC(c2ccccc2)c2ccc(SC)cc2)CC1 (stereo not given) | 
6.13 | CCN(C(=O)Cc1ccc(S(C)(=O)=O)cc1)C1CCN(CCC(c2ccccc2)c2ccc(NS(=O)(=O)c3ccccc3)cc2)CC1 (stereo not given) | 
7.74 | CCN(C(=O)Cc1ccc(S(C)(=O)=O)cc1)C1CCN(CCC(c2ccccc2)c2ccc(NS(C)(=O)=O)cc2)CC1 (stereo not given) | pIC50 [6]: 7.62; pIC50 [7]: 7.51
7.72 | CCN(C(=O)Cc1ccc(S(C)(=O)=O)cc1)C1CCN(CCC(c2ccc(Cl)cc2)c2cccc(F)c2)CC1 (stereo not given) | 
7.05 | CCN(C(=O)Cc1ccc(S(C)(=O)=O)cc1)C1CCN(CCC(c2ccc(NC(=O)OC(C)(C)C)cc2)c2cccc(F)c2)CC1 (stereo not given) | 
